According to patent US20260125374A1, “PI3K-ALPHA INHIBITORS AND METHODS OF MAKING AND USING THE SAME” (Relay Therapeutics, Inc., priority 2021, published 2026):
In brackets after ≈: the same amount, converted by molar mass.

Columns and labels:
[1] = Suspension stability at 25° C.; assay type: physicochemical; conditions: for Purity / Solubility / pH / Chiral purity (solids) / Solubility (μg/mL) / Chiral purity, liquid / Chiral purity, solid: 25° C.; for Solubility (μg/mL): LOQ: 0.25 μg/mL
Description: Suspension stability: Suspension stability of I-1 Form A and the 2 salt candidates was investigated in pure water, 0.5% (w/w) Tween 80 aqueous solution and 0.5% (w/w) MC (400 cP)+2% (w/w) Vitamin E TPGS aqueous solution at 25° C. for 2 h and 24 h. Target concentration was 2 mg/mL.
To confirm whether racemization occurs for the 2 salts in 0.5% (w/w) MC (400 cP)+2% (w/w) Vitamin E TPGS aqueous solution, the suspension stability in this vehicle was repeated at target concentration of 10 mg/mL. […] The hygroscopicity of these salts were further investigated.
Accurate 10 mg of I-1 Form A, 12.83 mg of I-3 Form A, 11.58 mg of I-4 Form A was weighed into a 8 mL glass vial, respectively. 5 mL of suspension vehicle was added, respectively. The salt amount used is equivalent to 10 mg anhydrous free form. These suspensions were stirred at 25° C. with 400 rpm. These suspensions were taken out at 2 hours and 24 hours, then centrifuged at 14,000 rpm for 5 min. The supernatants were analyzed by HPLC and pH meter. Solids obtained (wet cakes) were characterized by XRPD and HPLC to determine the chiral purity.
Accurate […] of I-3 Form A, 46.3 mg of I-4 Form A was weighed into a 8 mL glass vial, respectively. 4 mL of solubility medium was added, respectively. The salt amount used is equivalent to 40 mg anhydrous free form. 4 mL of the aqueous vehicle (0.5% (w/w) MC (400 cP) and 2% (w/w) Vitamin E TPGS in water) was added, respectively. These suspensions were stirred at 25° C. with 400 rpm. These suspensions were taken out at 2 hours and 24 hours, then centrifuged at 14,000 rpm for 5 min. The supernatants were analyzed by HPLC for the solubility and chiral purity and analyzed by pH meter. Solids obtained (wet cakes) were characterized by XRPD and HPLC for chiral purity.

[2] = Solubility study at 37° C. (buffer, water, bio-relevant media, MeOH/DCM); assay type: physicochemical; conditions: listed as I-4 Form A
Description: In addition, residual solids were checked by chiral HPLC to confirm whether racemization occurs.
Accurate 4 mg of I-1 Form A, 5.13 mg of I-3 Form A, 4.63 mg of I-4 Form A was weighed into a 8 mL glass vial, respectively. 2 mL of solubility medium was added. The salt amount used is equivalent to 4 mg anhydrous free form. Obtained suspensions/solutions were stirred at 37° C. at 400 rpm for 2 hours and 24 hours and then centrifuged at 37° C. at 14,000 rpm for 5 min. Supernatants were analyzed by UPLC and PH meter for solubility and pH value, respectively. Residual solids (wet cakes) were characterized by XRPD to determine physical form and then analyzed by HPLC for chiral purity.

[3] = 2 mg/mL, 0.5%(w/w) MC(400 cP) and 2%(w/w) Vitamin E TPGS in water, 2 h, listed as I-4 Form A
[4] = 2 mg/mL, 0.5%(w/w) MC(400 cP) and 2%(w/w) Vitamin E TPGS in water, 24 h, listed as I-4 Form A
[5] = 2 mg/mL, 0.5%(w/w) Tween 80 in water, 2 h, listed as I-4 Form A
[6] = 2 mg/mL, 0.5%(w/w) Tween 80 in water, 24 h, listed as I-4 Form A
[7] = 2 mg/mL, Pure water, 2 h, listed as I-4 Form A
[8] = 2 mg/mL, Pure water, 24 h, listed as I-4 Form A
[9] = 10 mg/mL, 0.5(w/w) MC(400 cP) and 2%(w/w) Vitamin E TPGS in water, 2 h, listed as I-4 Form A
[10] = 10 mg/mL, 0.5(w/w) MC(400 cP) and 2%(w/w) Vitamin E TPGS in water, 24 h, listed as I-4 Form A

Question: With N#Cc1c(-c2cc(NC(=O)c3cc(F)cc(C(F)(F)F)c3)c3c(c2)C(=O)N[C@H]3c2cc(F)ccc2Cl)ccc2ncnn12 [Compound I-4] as the compound, how does the “physical form of residual solids after the test (XRPD)” value ([1]; 0.5% MC (400 cP)+2% Vitamin E TPGS, target 10 mg/mL) read?
Answer: converted to amorphous form

Question: And the Purity [1, 3]?
Answer: 99.2%

Question: And the “Solubility” value [1, 3]?
Answer: 1210.7 µg/mL (≈ 1990 µM)

Question: What about the pH [1, 3] of the same compound?
Answer: 2.72

Question: What about the Purity [1, 4] of the same compound?
Answer: 99.6%

Question: And the “Solubility” value [1, 4]?
Answer: 2018.8 µg/mL (≈ 3320 µM)

Question: What about the pH [1, 4] of the same compound?
Answer: 2.61

Question: What about the “Chiral purity (solids)” value [1, 5] of the same compound?
Answer: 99.7%

Question: And the Purity [1, 5]?
Answer: 99.5%

Question: What about the “Solubility” value [1, 5] of the same compound?
Answer: 342.6 µg/mL (≈ 563 µM)

Question: What about the pH [1, 5] of the same compound?
Answer: 2.78

Question: And the “Chiral purity (solids)” value [1, 6]?
Answer: 95.8%

Question: What about the Purity [1, 6] of the same compound?
Answer: 99.6%

Question: And the pH [1, 6]?
Answer: 2.63

Question: What about the “Solubility (μg/mL)” value ([1]; 2 mg/mL, Pure water, 2 h) of the same compound?
Answer: <LOQ

Question: And the “Chiral purity (solids)” value [1, 7]?
Answer: 99.7%

Question: And the Purity [1, 7]?
Answer: 99.5%

Question: What about the pH [1, 7] of the same compound?
Answer: 2.81

Question: And the “Solubility (μg/mL)” value ([1]; 2 mg/mL, Pure water, 24 h)?
Answer: <LOQ

Question: What about the “Chiral purity (solids)” value [1, 8] of the same compound?
Answer: 99.7%

Question: What about the Purity [1, 8] of the same compound?
Answer: 99.4%

Question: And the pH [1, 8]?
Answer: 2.61

Question: And the Purity ([1]; 10 mg/mL, 0.5(w/w) MC(400 cP) and 2%(w/w) Vitamin E TPGS in water, 2 h)?
Answer: 99.7%

Question: What about the “Chiral purity, liquid” value [1, 9] of the same compound?
Answer: 100%;

Question: What about the “Chiral purity, solid” value [1, 9] of the same compound?
Answer: 99.8%

Question: What about the pH [1, 9] of the same compound?
Answer: 1.89

Question: And the “Chiral purity, liquid” value [1, 10]?
Answer: 99.8%;

Question: And the “Chiral purity, solid” value [1, 10]?
Answer: 99.7%

Question: And the Purity [1, 10]?
Answer: 99.6%

Question: What about the pH [1, 10] of the same compound?
Answer: 1.86

Question: What about the solubility at 2 h ([1]; 25 °C, aqueous with cosolvent or surfactant or cyclodextrin, thermodynamic from solid, 10 mg/mL, 0.5(w/w) MC(400 cP) and 2%(w/w) Vitamin E TPGS in water, 2 h) of the same compound?
Answer: 3950 µg/mL (≈ 6480 µM)

Question: And the solubility at 24 h ([1]; 25 °C, aqueous with cosolvent or surfactant or cyclodextrin, thermodynamic from solid, 10 mg/mL, 0.5(w/w) MC(400 cP) and 2%(w/w) Vitamin E TPGS in water, 24 h)?
Answer: 3810 µg/mL (≈ 6260 µM)

Question: What about the Initial chiral purity ([1]; before suspension, listed as I-4 Form A) of the same compound?
Answer: Initial chiral purity: 99.5%

Question: And the solubility at 24 h ([1]; suspension in 0.5% (w/w) Tween 80 in water, 25 °C, aqueous with cosolvent or surfactant or cyclodextrin, thermodynamic from solid, 2 mg/mL, 0.5%(w/w) Tween 80 in water, 24 h)?
Answer: 16.3 µg/mL (≈ 26.8 µM)

Question: And the “Chiral purity” value ([2]; FaSSIF-V1, pH 6.5, 2 hours)?
Answer: purity: 98.3%)

Question: And the Solubility ([2]; FaSSIF-V1, pH 6.5, 2 hours)?
Answer: 44.1 μg/mL(chiral

Question: What about the “Chiral purity (solids)” value ([2]; FaSSIF-V1, pH 6.5, 24 hours) of the same compound?
Answer: 99.3%)

Question: And the Solubility ([2]; FaSSIF-V1, pH 6.5, 24 hours)?
Answer: 0.4 µg/mL (≈ 0.657 µM)

Question: What about the pH of supernatant ([2]; FaSSIF-V1, pH 6.5, 24 hours) of the same compound?
Answer: 6.15

Question: What about the “Chiral purity” value ([2]; FeSSIF-V1, pH 5.0, 2 hours) of the same compound?
Answer: purity: 97.7%)

Question: What about the Solubility ([2]; FeSSIF-V1, pH 5.0, 2 hours) of the same compound?
Answer: 239.1 μg/mL(chiral

Question: What about the “Chiral purity (solids)” value ([2]; FeSSIF-V1, pH 5.0, 24 hours) of the same compound?
Answer: 85.2%)

Question: And the Solubility ([2]; FeSSIF-V1, pH 5.0, 24 hours)?
Answer: 16.2 µg/mL (≈ 26.6 µM)

Question: What about the pH of supernatant ([2]; FeSSIF-V1, pH 5.0, 24 hours) of the same compound?
Answer: 4.84

Question: What about the Solubility ([2]; MeOH/DCM (1:2, v/v), 2 hours) of the same compound?
Answer: >111000 µg/mL

Question: And the Solubility ([2]; MeOH/DCM (1:2, v/v), 24 hours)?
Answer: >111000 µg/mL

Question: And the Solubility ([2]; SGF, pH 2.0, 2 hours)?
Answer: 3.2 µg/mL (≈ 5.26 µM)

Question: What about the “Chiral purity (solids)” value ([2]; SGF, pH 2.0, 24 hours) of the same compound?
Answer: 99.2%)

Question: And the Solubility ([2]; SGF, pH 2.0, 24 hours)?
Answer: 2.6 µg/mL (≈ 4.27 µM)

Question: And the pH of supernatant ([2]; SGF, pH 2.0, 24 hours)?
Answer: 1.89

Question: And the “Chiral purity (solids)” value ([2]; Water, 24 hours)?
Answer: 99.2%)

Question: What about the pH of supernatant ([2]; Water, 24 hours) of the same compound?
Answer: 2.52

Question: And the “solubility in MeOH/DCM (1:2, v/v)” value [2]?
Answer: > 111000 µg/mL

Question: And the “Chiral purity (solids)” value ([2]; pH 2, HCl, 24 hours)?
Answer: 99.3%)

Question: What about the pH of supernatant ([2]; pH 2, HCl, 24 hours) of the same compound?
Answer: 1.89
